Calls of active or inactive are those of the source.
Experiments:
Format in all cases: functional, organism-based
[1] = test system: Mycobacterium tuberculosis; test: Antimicrobial activity against rifampicin-resistant Mycobacterium tuberculosis 19000 after 2 to 3 weeks
[2] = test system: Mycobacterium tuberculosis; test: Antimicrobial activity against ethionamide-resistant Mycobacterium tuberculosis 1700 after 2 to 3 weeks
[3] = test system: Mycobacterium tuberculosis; test: Antimicrobial activity against streptomycin-resistant Mycobacterium tuberculosis ATCC 35820 after 2 to 3 weeks
[4] = test system: Mycobacterium tuberculosis; test: Antimicrobial activity against isoniazid-resistant Mycobacterium tuberculosis ATCC 35822 after 2 to 3 weeks

Measured: Activity

CC(C)OCCOc1ccc(-c2cnc(COc3ncccc3C(N)=O)nc2)c(Cl)c1
active: all assays above

COCCOc1ccc(-c2ccc(COc3ncccc3C(N)=O)nc2)c(C)c1
active: all assays above

NC(=O)c1cccnc1OCc1ncc(-c2ccc(OCCCF)cc2Cl)cn1
active: all assays above
